Laboratory results: the OPERA property sets (Mansouri et al. 2018)

| Structure (SMILES) | melting point | boiling point | also measured |
| --- | --- | --- | --- |
| CCCCCCCCCCCCCCCCCCO | 59.5 °C |  | log10 Koa: 10.9; log10 vapour pressure (mmHg): -5.57; ready biodegradability: readily biodegradable |
| CNC(=O)COC(=O)c1ccccc1 | 112 °C |  |  |
| OCc1cccc(F)c1 |  | 201 °C |  |
| NC(=O)C1c2ccccc2CCc2ccccc21 | 194 °C |  |  |
| CCCCS | -116 °C | 98.5 °C | log10 Henry constant (atm·m³/mol): -2.34; log10 vapour pressure (mmHg): 1.66 |
| CC(C)C(C)CC(C)(C)C (stereo not given) |  | 148 °C | log10 vapour pressure (mmHg): 0.779 |
| O=C(CCc1ccc(O)cc1)c1c(O)cc(O)cc1O[C@@H]1O[C@H](CO)[C@@H](O)[C@H](O)[C@H]1O | 110 °C |  |  |
| Cc1c(C)c2c3ccccc3ccc2c2ccccc12 | 129 °C |  |  |
| CC1(C)S[C@@H]2[C@H](N3C(=O)C(c4ccccc4)NC3(C)C)C(=O)N2[C@H]1C(=O)O (stereo not given in full) | 190 °C |  |  |
| ClC(Cl)Br | -57 °C | 90 °C | log10 Henry constant (atm·m³/mol): -2.67; log10 Koc (L/kg): 1.78; ready biodegradability: readily biodegradable |
| CC(C)CCCN | -94.4 °C | 125 °C |  |
| CCOC(=O)Cc1c[nH]c2ccccc12 | 44.5 °C |  |  |
| Cc1ccc(C(N)=O)cc1 | 162 °C |  | log10 Koc (L/kg): 1.78 |
| C=Cc1ccccc1Cl | -63.1 °C | 189 °C | log10 vapour pressure (mmHg): -0.0173; ready biodegradability: not readily biodegradable |
| Cc1cc(O)c(Cl)c(C)c1Cl | 83 °C |  |  |
| O=C(Cl)C(F)(F)C(F)(F)C(F)(F)F |  | 38.5 °C |  |
| C=CC(=O)OCCOC |  |  | ready biodegradability: readily biodegradable |
| Brc1cc(Br)c(Br)c(Br)c1Br | 160 °C |  |  |
| CC(C)(CO)Cc1ccccc1 | 34.5 °C |  |  |
| C=Cc1ccc(CCl)cc1 |  |  | ready biodegradability: not readily biodegradable |
| NC(=O)Nc1ccccc1 | 147 °C | 238 °C | log10 Koc (L/kg): 1.35; ready biodegradability: not readily biodegradable |
| CCCCCC(C)N (stereo not given) |  | 142 °C |  |
| O=C=Nc1ccc(Cl)cc1 | 30 °C | 204 °C | log10 vapour pressure (mmHg): -0.712 |
| COS(=O)(=O)OC | -27 °C |  | log10 vapour pressure (mmHg): -0.169 |
| CCOC(C)(OCC)OCC |  | 145 °C |  |

| Structure (SMILES) | melting point | boiling point | also measured |
| --- | --- | --- | --- |
| CCOc1ccc(C(N)=O)cc1 | 209 °C |  |  |
| CCOC(=O)C(Cl)Cc1cc(-n2nc(C)n(C(F)F)c2=O)c(F)cc1Cl (stereo not given) | -22.1 °C | 352 °C | log10 vapour pressure (mmHg): -6.92 |
| Nc1ccc2c(S(=O)(=O)O)cccc2c1S(=O)(=O)O |  |  | ready biodegradability: not readily biodegradable |
| CCC(=O)O[C@]1(C(=O)CCl)[C@@H](C)C[C@H]2[C@@H]3CCC4=CC(=O)C=C[C@]4(C)[C@@]3(F)[C@@H](O)C[C@@]21C | 196 °C |  |  |
| CC(C)N(C(=O)SCC(Cl)=C(Cl)Cl)C(C)C | 29 °C |  | log10 Koc (L/kg): 3.35; log10 vapour pressure (mmHg): -3.92 |
| CCCCCCCCCCCCCCCCCCCC | 36.8 °C | 343 °C | log10 biodegradation half-life (days): 1.4; log10 vapour pressure (mmHg): -5.34; ready biodegradability: readily biodegradable |
| CCCCCCCCCCCCCCCCCCCCCCCCCCCC(=O)O | 90.9 °C |  |  |
| S=C(SN1CCOCC1)N1CCOCC1 | 139 °C |  |  |
| CCCCCCCCCCCCCCCC(=O)OC | 30 °C |  | log10 vapour pressure (mmHg): -4.33 |
| C[Si](Cl)(Cl)CCl |  | 122 °C |  |
| CC(=O)c1ccccc1[N+](=O)[O-] | 28.5 °C |  |  |
| Nc1c2ccccc2nc2ccccc12 | 241 °C |  |  |
| CCC(c1ccc2cc(OC)ccc2c1)C(C)(C)C(=O)O (stereo not given) | 140 °C |  |  |
| COP(=S)(OC)Oc1ccc(S(C)=O)c(C)c1 (stereo not given) |  |  | log10 BCF (fish): 0.12; log10 biotransformation half-life (days) (fish): -0.38 |
| Cc1ccccc1C=Cc1ccccc1C | 83 °C |  |  |
| Cc1ccc(C)n1C |  | 171 °C |  |
| NC(N)=O |  |  | log10 Koc (L/kg): 0.15; log10 vapour pressure (mmHg): -4.92; ready biodegradability: readily biodegradable |
| Clc1ccc(-c2c(Cl)cc(Cl)c(Cl)c2Cl)cc1 |  |  | log10 biotransformation half-life (days) (fish): 1.84 |
| O=C(Nc1ccccc1)OCC1(COC(=O)Nc2ccccc2)CCCC1 | 152 °C |  |  |
| N#CCc1ccc2ccccc2c1 | 83 °C | 303 °C |  |
| CC(C)(C(N)=O)n1nnc2ccccc21 | 187 °C |  |  |
| ClCc1cc(Cl)c(Cl)cc1Cl |  | 273 °C |  |
| C=CCOc1ccccc1 |  | 192 °C |  |
| O=C1c2ccccc2-c2ccc3c4ccc5c6c(ccc(c7ccc1c2c73)c64)C(=O)c1ccccc1-5 | 492 °C |  |  |
| Nc1ccc(/N=N/c2ccc(N)cc2)cc1 | 250 °C |  |  |
